In ChEMBL document CHEMBL5321272 (J Med Chem, 2023):
Activity calls are given as the source filed them. The rule behind the calls is not given here.

Columns and labels:
[1] = Selectivity ratio of IC50 for inhibition of c-KIT (unknown origin) to IC50 for inhibition of FLT3 D835Y mutant (unknown origin)
[2] = target: T1, Serine/threonine-protein kinase Chk1 (Homo sapiens, UniProt O14757)
T1 sequence (O14757 whole entry): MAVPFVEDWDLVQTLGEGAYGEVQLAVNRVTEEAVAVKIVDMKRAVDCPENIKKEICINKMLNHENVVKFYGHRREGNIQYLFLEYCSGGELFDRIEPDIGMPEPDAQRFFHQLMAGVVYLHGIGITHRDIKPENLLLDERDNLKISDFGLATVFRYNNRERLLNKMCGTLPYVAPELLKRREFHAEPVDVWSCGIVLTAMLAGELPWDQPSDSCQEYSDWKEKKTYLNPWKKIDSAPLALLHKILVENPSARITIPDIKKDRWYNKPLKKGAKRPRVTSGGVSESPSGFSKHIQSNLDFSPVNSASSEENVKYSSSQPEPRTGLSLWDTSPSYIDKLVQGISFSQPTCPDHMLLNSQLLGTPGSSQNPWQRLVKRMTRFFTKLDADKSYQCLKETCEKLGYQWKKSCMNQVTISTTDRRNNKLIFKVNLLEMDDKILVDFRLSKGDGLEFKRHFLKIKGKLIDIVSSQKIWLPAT
Description: Inhibition of CHK1 (unknown origin) using peptide substrate S1 and ATP as substrate incubated for 1 hr by HTRF assay

[3] = target: Mast/stem cell growth factor receptor Kit (Homo sapiens, UniProt P10721); assay: Inhibition of c-KIT (unknown origin) using peptide substrate TK-S and ATP as substrate incubated for 1 hr by HTRF assay; assay type: toxicity
Mast/stem cell growth factor receptor Kit, sequence (P10721 whole entry): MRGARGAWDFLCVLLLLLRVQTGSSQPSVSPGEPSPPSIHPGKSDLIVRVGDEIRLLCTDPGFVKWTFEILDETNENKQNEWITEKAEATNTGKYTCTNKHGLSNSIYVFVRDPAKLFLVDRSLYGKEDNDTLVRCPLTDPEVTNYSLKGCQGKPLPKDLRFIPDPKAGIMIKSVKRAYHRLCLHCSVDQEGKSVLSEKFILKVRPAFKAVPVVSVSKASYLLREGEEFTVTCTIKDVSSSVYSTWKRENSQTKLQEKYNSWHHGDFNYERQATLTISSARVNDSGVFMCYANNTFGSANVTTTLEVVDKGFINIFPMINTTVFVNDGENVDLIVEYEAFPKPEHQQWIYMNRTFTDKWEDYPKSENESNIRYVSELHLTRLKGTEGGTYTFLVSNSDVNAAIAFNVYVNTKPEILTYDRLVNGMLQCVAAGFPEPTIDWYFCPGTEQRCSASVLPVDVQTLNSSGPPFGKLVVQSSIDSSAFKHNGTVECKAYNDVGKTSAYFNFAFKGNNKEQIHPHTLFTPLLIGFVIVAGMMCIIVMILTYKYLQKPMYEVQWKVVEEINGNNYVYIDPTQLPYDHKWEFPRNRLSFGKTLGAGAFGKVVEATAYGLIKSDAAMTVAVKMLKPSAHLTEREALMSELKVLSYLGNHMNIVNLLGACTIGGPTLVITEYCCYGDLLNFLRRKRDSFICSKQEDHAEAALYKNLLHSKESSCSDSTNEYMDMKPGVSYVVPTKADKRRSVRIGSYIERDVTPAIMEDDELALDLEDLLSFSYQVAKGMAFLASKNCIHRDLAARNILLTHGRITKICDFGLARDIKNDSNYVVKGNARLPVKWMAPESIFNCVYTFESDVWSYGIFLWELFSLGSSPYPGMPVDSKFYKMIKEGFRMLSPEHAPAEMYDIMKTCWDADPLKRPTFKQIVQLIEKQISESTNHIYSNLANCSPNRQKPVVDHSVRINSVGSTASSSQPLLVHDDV

MV4-11 = assay: cells; settings: Homo sapiens, MV4-11, 72 h
Description: Antiproliferative activity against human MV4-11 cells assessed as reduction in cell viability incubated for 72 hrs by CellTiter 96 Aqueous One Solution Cell Proliferation Assay

hERG (KCNH2) = hERG (KCNH2) (Homo sapiens, UniProt Q12809); assay: Inhibition of hERG expressed in HEK293 cells at 20 uM by whole cell patch clamp analysis; assay type: toxicity, cell-based; settings: HEK293 cells expressing hERG
hERG (KCNH2), sequence (Q12809 whole entry): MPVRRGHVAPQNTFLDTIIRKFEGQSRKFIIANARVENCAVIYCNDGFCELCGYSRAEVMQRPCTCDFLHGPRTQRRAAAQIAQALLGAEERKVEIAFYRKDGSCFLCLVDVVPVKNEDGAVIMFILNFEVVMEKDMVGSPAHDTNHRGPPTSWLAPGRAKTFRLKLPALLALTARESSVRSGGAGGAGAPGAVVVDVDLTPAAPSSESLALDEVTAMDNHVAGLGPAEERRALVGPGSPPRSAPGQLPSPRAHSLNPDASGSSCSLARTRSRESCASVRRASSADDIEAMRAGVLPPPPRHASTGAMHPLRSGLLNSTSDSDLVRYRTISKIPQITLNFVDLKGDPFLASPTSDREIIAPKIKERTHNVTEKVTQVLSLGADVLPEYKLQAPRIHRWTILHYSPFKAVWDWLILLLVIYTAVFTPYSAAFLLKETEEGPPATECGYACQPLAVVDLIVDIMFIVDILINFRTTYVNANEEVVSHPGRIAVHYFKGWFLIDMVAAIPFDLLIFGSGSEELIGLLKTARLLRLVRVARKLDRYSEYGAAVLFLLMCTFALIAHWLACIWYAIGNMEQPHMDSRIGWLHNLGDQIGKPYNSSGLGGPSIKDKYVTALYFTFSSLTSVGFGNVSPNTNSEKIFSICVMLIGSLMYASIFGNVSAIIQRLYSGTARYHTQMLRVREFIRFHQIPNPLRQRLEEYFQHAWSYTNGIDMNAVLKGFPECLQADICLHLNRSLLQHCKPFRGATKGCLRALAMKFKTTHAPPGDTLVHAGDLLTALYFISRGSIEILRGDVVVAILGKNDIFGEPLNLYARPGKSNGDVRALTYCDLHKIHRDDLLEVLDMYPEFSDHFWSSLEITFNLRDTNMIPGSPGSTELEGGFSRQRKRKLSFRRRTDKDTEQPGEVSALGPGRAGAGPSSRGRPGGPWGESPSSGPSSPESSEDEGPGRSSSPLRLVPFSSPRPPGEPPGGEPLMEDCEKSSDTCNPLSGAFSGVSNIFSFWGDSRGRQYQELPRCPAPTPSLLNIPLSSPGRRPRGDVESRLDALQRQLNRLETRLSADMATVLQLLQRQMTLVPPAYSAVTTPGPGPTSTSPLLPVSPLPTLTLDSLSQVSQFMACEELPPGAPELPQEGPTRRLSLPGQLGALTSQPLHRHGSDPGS

BaF3 [4] = assay: Antiproliferative activity against mouse BaF3 cells harboring FLT3 D835V mutant assessed as reduction in cell viability incubated for 72 hrs by CellTiter 96 Aqueous One Solution Cell Proliferation Assay; assay type: functional, cell-based
BaF3 [5] = assay: Antiproliferative activity against mouse BaF3 cells harboring FLT3 D835F mutant assessed as reduction in cell viability incubated for 72 hrs by CellTiter 96 Aqueous One Solution Cell Proliferation Assay; assay type: functional, cell-based
[6] = target: Receptor-type tyrosine-protein kinase FLT3 (Homo sapiens, UniProt P36888, D835Y)
Description: Inhibition of FLT3 D835Y mutant (unknown origin) using peptide substrate TK-S and ATP as substrate incubated for 1 hr by HTRF assay

BaF3 [7] = assay: Antiproliferative activity against mouse BaF3 cells harboring FLT3 F691L mutant assessed as reduction in cell viability incubated for 72 hrs by CellTiter 96 Aqueous One Solution Cell Proliferation Assay; assay type: functional, cell-based

SMILES	Ratio IC50 [1]	IC50 [2]	IC50 [3]	IC50 (MV4-11)	inhibition at 20 µM (hERG (KCNH2))	Activity (BaF3 [4])	Activity (BaF3 [5])	IC50 [6]	Activity (BaF3 [7])
CC(C)(O)CC(=O)N1CCc2ccc(Nc3ncc(C(F)(F)F)c(N[C@H]4CC[C@@H](N)CC4)n3)cc2C1	1820	9.9 nM	3840 nM	0.44 nM	43.9%	Active	Active	2.11 nM	Active
CC(C)(O)CC(=O)N1CCc2cc(Nc3ncc(C(F)(F)F)c(N[C@H]4CCCC[C@H]4N)n3)ccc2C1		> 10000 nM						1450 nM	
CC(C)(O)Cn1cnc2cc(Nc3ncc(C(F)(F)F)c(N[C@H]4CC[C@@H](N)CC4)n3)ccc2c1=O		206 nM		1.59 nM	6.82%			4.56 nM	
CC(C)(O)CC(=O)N1CCc2cc(Nc3ncc(C(F)(F)F)c(NCC(C)(C)CN)n3)ccc2C1		1060 nM		27.9 nM				91.4 nM	
CC(C)(O)CC(=O)N1CCc2cc(Nc3ncc(C(F)(F)F)c(NCCCCCN)n3)ccc2C1		159 nM		12.7 nM				3.19 nM	
CC(=O)N1CCc2ccc(Nc3ncc(C(F)(F)F)c(N[C@H]4CC[C@@H](N)CC4)n3)cc21		58 nM		36 nM				9.84 nM	
CNCCCNc1nc(Nc2ccc3c(c2)CCN(C(=O)CC(C)(C)O)C3)ncc1C(F)(F)F		61.6 nM		14.2 nM				27.3 nM	
CC(C)(O)Cn1ccc2cc(Nc3ncc(C(F)(F)F)c(N[C@H]4C[C@H]5CC[C@@H](C4)N5)n3)ccc2c1=O		2020 nM		> 5000 nM				488 nM	
CC(C)(N)CCNc1nc(Nc2ccc3c(c2)CCN(C(=O)CC(C)(C)O)C3)ncc1C(F)(F)F		219 nM		0.62 nM	31.9%			3.32 nM	
CC(C)(O)Cn1ccc2cc(Nc3ncc(C(F)(F)F)c(N[C@H]4CC[C@@H](N)CC4)n3)ccc2c1=O		124 nM		0.62 nM	22.1%			3.91 nM	
CC(C)(O)CC(=O)N1CCc2cc(Nc3ncc(C(F)(F)F)c(NC4CCNCC4)n3)ccc2C1		227 nM		22.4 nM				40.9 nM	
C[C@H](O)C(=O)N1CCc2cc(Nc3ncc(C(F)(F)F)c(N[C@H]4CC[C@@H](N)CC4)n3)ccc2C1	766	5.1 nM	704 nM	0.28 nM	13.6%			0.92 nM	
CC(C)(O)Cn1ncc2cc(Nc3ncc(C(F)(F)F)c(N[C@H]4CC[C@@H](N)CC4)n3)ccc2c1=O		66.9 nM		1.1 nM	48.1%			2.69 nM	
CC(=O)N1CCc2ccc(Nc3ncc(C(F)(F)F)c(N[C@H]4CC[C@@H](N)CC4)n3)cc2C1	3720	7.61 nM	4620 nM	0.35 nM	43.4%	Active	Active	1.24 nM	Active
N[C@H]1CC[C@@H](Nc2nc(Nc3ccc4c(c3)CN(C(=O)CO)C4)ncc2C(F)(F)F)CC1	1870	7.6 nM	1990 nM	0.14 nM		Active	Active	1.06 nM	Active
CC(C)(O)CC(=O)N1CCc2cc(Nc3ncc(C(F)(F)F)c(NCCCN)n3)ccc2C1		34.5 nM		2.38 nM	11.2%			3.79 nM	
CC(C)(O)CC(=O)N1CCc2cc(Nc3ncc(C(F)(F)F)c(NCCCCN)n3)ccc2C1		41.1 nM		0.61 nM				1.5 nM	
CC(C)(O)CC(=O)N1CCc2cc(Nc3ncc(C(F)(F)F)c(NC[C@H]4CCCNC4)n3)ccc2C1		86.5 nM		2.71 nM				12 nM	
CC(=O)N1CCc2cc(Nc3ncc(C(F)(F)F)c(N[C@H]4CC[C@@H](N)CC4)n3)ccc21	4870	10.7 nM	4780 nM	2.07 nM		Active	Active	0.98 nM	Active
CC(C)(O)CC(=O)N1CCc2cc(Nc3ncc(C(F)(F)F)c(NC[C@@H]4CCCNC4)n3)ccc2C1		336 nM		8.26 nM				24.1 nM	
CC(C)(O)Cn1ccc2cc(Nc3ncc(C(F)(F)F)c(NC4CC5(CNC5)C4)n3)ccc2c1=O		80.1 nM		66.2 nM				26.6 nM	
Cn1ncc2cc(Nc3ncc(C(F)(F)F)c(N[C@H]4CC[C@@H](N)CC4)n3)ccc2c1=O		58.5 nM		1.36 nM	81.9%			4.22 nM	

SMILES	Ratio IC50 [1]	IC50 [2]	IC50 [3]	IC50 (MV4-11)	inhibition at 20 µM (hERG (KCNH2))	Activity (BaF3 [4])	Activity (BaF3 [5])	IC50 [6]	Activity (BaF3 [7])
CC(C)(O)CC(=O)N1CCc2cc(Nc3ncc(C(F)(F)F)c(NCC4CCNCC4)n3)ccc2C1		87.3 nM		6.79 nM				10.4 nM	
CC(=O)NCCCNc1nc(Nc2ccc3c(c2)CCN(C(=O)CC(C)(C)O)C3)ncc1C(F)(F)F		765 nM		44.5 nM				16.1 nM	
Cn1cnc2cc(Nc3ncc(C(F)(F)F)c(N[C@H]4CC[C@@H](N)CC4)n3)ccc2c1=O		223 nM		1.77 nM	48.3%			8.8 nM	
CC(C)(O)C(=O)N1CCc2nc(Nc3ncc(C(F)(F)F)c(N[C@H]4CC[C@@H](N)CC4)n3)ccc2C1		250 nM		9.51 nM				55.4 nM	
CC(C)(O)CC(=O)N1CCc2cc(Nc3ncc(C(F)(F)F)c(N[C@H]4CCCNC4)n3)ccc2C1		952 nM						311 nM	
CC(C)(O)CC(=O)N1CCc2cc(Nc3ncc(C(F)(F)F)c(N[C@@H]4CCCNC4)n3)ccc2C1		35.2 nM		2.26 nM	35%			4.03 nM	
CC(C)(O)CC(=O)N1CCc2nc(Nc3ncc(C(F)(F)F)c(N[C@H]4CC[C@@H](N)CC4)n3)ccc2C1		362 nM		21.4 nM				77.1 nM	
CC(C)(O)CC(=O)N1CCc2cc(Nc3ncc(C(F)(F)F)c(N[C@H]4CC[C@@H](N)CC4)n3)ccc21	1760	19 nM	5060 nM	2.21 nM		Active	Active	2.88 nM	Active
CC(C)(O)C(=O)N1CCc2cc(Nc3ncc(C(F)(F)F)c(N[C@H]4CC[C@@H](N)CC4)n3)ccc2C1	589	8.6 nM	902 nM	0.38 nM	17.7%			1.53 nM	
CC(C)(O)CC(=O)N1CCc2cc(Nc3ncc(C(F)(F)F)c(NCCN)n3)ccc2C1		135 nM						38.2 nM	
CC(=O)N[C@H]1CC[C@@H](Nc2nc(Nc3ccc4c(c3)CCN(C(=O)CC(C)(C)O)C4)ncc2C(F)(F)F)CC1		1090 nM		20.7 nM				18.9 nM	
CC(C)(N)CNc1nc(Nc2ccc3c(c2)CCN(C(=O)CC(C)(C)O)C3)ncc1C(F)(F)F		2000 nM		39.7 nM				166 nM	
CN1CCc2cc(Nc3ncc(C(F)(F)F)c(N[C@H]4CC[C@@H](N)CC4)n3)ccc2C1=O	4150	11.7 nM	4770 nM	1.2 nM	40.9%	Active	Active	1.15 nM	Active
CC(C)(O)CC(=O)N1CCc2cc(Nc3ncc(C(F)(F)F)c(N[C@H]4CC[C@@H](NS(C)(=O)=O)CC4)n3)ccc2C1		827 nM		6.21 nM				3.8 nM	
CC(=O)N1CCc2nc(Nc3ncc(C(F)(F)F)c(N[C@H]4CC[C@@H](N)CC4)n3)ccc2C1		301 nM		1.45 nM				61.4 nM	
CC(C)(O)CC(=O)N1CCc2cc(Nc3ncc(C(F)(F)F)c(N[C@H]4CC[C@H](N)CC4)n3)ccc2C1		96 nM		5.89 nM				12 nM	
Cn1ccc2cc(Nc3ncc(C(F)(F)F)c(N[C@H]4CC[C@@H](N)CC4)n3)ccc2c1=O		26.3 nM			75.9%				
CC(C)(O)CC(=O)N1CCc2cc(Nc3ncc(C(F)(F)F)c(NCCCNS(C)(=O)=O)n3)ccc2C1		1950 nM						18.1 nM	
CCn1ccc2cc(Nc3ncc(C(F)(F)F)c(N[C@H]4CC[C@@H](N)CC4)n3)ccc2c1=O		26.7 nM		0.99 nM				1.59 nM	
CC(C)(O)CC(=O)N1CCc2cc(Nc3ncc(C(F)(F)F)c(N[C@@H]4CCCC[C@@H]4N)n3)ccc2C1		1970 nM						224 nM	
N#Cc1cnc(Nc2cc(NC[C@H]3CNCCO3)c(C(F)(F)F)cn2)cn1 [SRA-737]				245 nM					
